In US20210179683A1, “METHOD OF RESPONSE PREDICTION FOR BCL2 FAMILY PROTEIN TARGETING DRUG” (Proteina Co., Ltd., priority 2019, published 2021):

Key:
BCL2-BIM interaction [1] = target: T1, BCL2-BIM interaction (Homo sapiens, UniProt P10415); assay: BCL2-BIM PPI in bone marrow or whole blood specimens of blood cancer patients over the course of treatment; assay type: in vivo; design: PPI counts between BCL2, MCL1, or BCL-XL, all endogenous to the samples from patient 1, and exogenous BIM; from tissue; host or cells: bone marrow and whole blood of blood cancer patients; conditions: patient 1; bone marrow after quizartinib, whole blood after venetoclax and LDAC
From the text: The method provided herein can lead to a method for tracing molecular states of a patient with time. In greater detail, the interaction analysis of bone marrow or blood specimens collected at various stages from a blood cancer patient can be used to provide information helpful in determining BCL2 family protein-dependence and whether to administer a corresponding targeted anticancer agent. […] Afterwards, a cord blood stem cell transplantation brought about complete remission in the patient.
In addition, time series diagnosis was performed for patient 2 in the same manner as for patient 1 (FIG. 35). In patient 2, the signaling pathway of the BCL2 family protein could not be controlled by prescribing the FLT3 targeting inhibitor, either. […] From the results obtained above, it is understood that quizartinib prescription cannot bring about any clinical effect.

leukocyte count = assay: Leukocyte count of treated blood cancer patients; assay type: in vivo, human
From the text: The method provided herein can lead to a method for tracing molecular states of a patient with time. In greater detail, the interaction analysis of bone marrow or blood specimens collected at various stages from a blood cancer patient can be used to provide information helpful in determining BCL2 family protein-dependence and whether to administer a corresponding targeted anticancer agent. […] Afterwards, a cord blood stem cell transplantation brought about complete remission in the patient. In addition, time series diagnosis was performed for patient 2 in the same manner as for patient 1 (FIG. 35). In patient 2, the signaling pathway of the BCL2 family protein could not be controlled by prescribing the FLT3 targeting inhibitor, either. […] From the results obtained above, it is understood that quizartinib prescription cannot bring about any clinical effect.

BCL-XL = target: T2, BCL-XL (Homo sapiens, UniProt Q07817); assay: PPI of endogenous BCL-XL of drug-treated cells with exogenous BAD; assay type: cell-based; conditions: HL60 or OCI-LY3 cells, 100 nM, 24 hours, vs DMSO
T2 construct: endogenous in cells; host or cells: HL60, OCI-LY3
Description: (§1) Blood cancer cells (The Korean Cell Line Bank and ATCC; HL-60 (CVCL_0002), OCI-LY3 (CVCL_8800)), Ramos (CVCL_0597), U937, THP1, and SUDHL8) and the blood cancer cell pellets from buffy coats of patients were each suspended in a lysis buffer (HEPES 50 mM NaCl 150 mM Glycerol 10% (w/v) GDN (Digitonin) 1% (w/v) with 2% (w/v) phosphatase inhibitor cocktail ⅔ (P5726, P0044)) and vortexed three times at regular intervals of 10 min. After 30 min, the lysis buffer containing the pellet homogenate was centrifuged at 15,000 g for 10 min. The supernatant thus formed was used as an analysis lysate to be applied to a substrate in subsequent experiments. […]
The cell lysate, prepared in Example 1.2, containing the probe-labeled first protein-interacting protein was added to the substrate prepared in Example 1.3. […] Then, protein-protein interactions were measured as follows: […]
(§2) For example, the method proposed in this Example can quantitatively measure changes in PPI intensity and complex formation after and before treatment with BCL2-targeting inhibitors. […]

BCL2-BAD interaction = target: T3, BCL2-BAD interaction (Homo sapiens, UniProt P10415); assay: PPI between endogenous BCL2 of drug-treated cells and exogenous BAD-GFP (single-molecule pull-down, TIRF); assay type: cell-based; conditions: 24 hours
T3 construct: endogenous in cells; host or cells: HL60, OCI-LY3
Description: as §1
The cell lysate, prepared in Example 1.2, containing the probe-labeled first protein-interacting protein was added to the substrate prepared in Example 1.3. […] Then, protein-protein interactions were measured as follows:
The substrate was fixedly mounted on a total internal reflection fluorescence and imaged to obtain data for protein-protein interaction (binding). […]
as §2

MCL1-NOXA interaction = target: T4, MCL1-NOXA interaction (Homo sapiens, UniProt Q07820); assay: PPI between endogenous MCL1 of drug-treated cells and exogenous GFP-NOXA; assay type: cell-based; conditions: HL60 or OCI-LY3 cells, 100 nM, 24 hours, vs DMSO
T4 construct: endogenous in cells; host or cells: HL60, OCI-LY3
Description: Excess lysate was washed off with a washing buffer (HEPES 50 mM NaCl 150 mM glycerol 1% GDN 0.03%). Then, protein-protein interactions were measured as follows: […]

BAX (N-terminus exposed) = assay: Detection of N-terminus exposed (active conformation) BAX in GDN lysates of drug-treated cells; assay type: cell-based, human; conditions: Staurosporine for one hour or venetoclax for 24 hours; lysis buffer containing GDN
From the text: (§3) In order to achieve this Example, a specimen may be prepared by artificially inducing apoptosis.

BAX = BAX level after forced N-terminus exposure with Triton X-100 in lysates of drug-treated cells; assay type: cell-based, human; conditions: Staurosporine for one hour or venetoclax for 24 hours; lysis buffer containing Triton X-100
From the text: as §3

BCL2 = BCL2 expression level in drug-treated cells; conditions: OCI-LY3 cells, 24 hours
BCL2-BIM interaction [2] = target: T1, BCL2-BIM interaction; assay: BCL2-BIM PPI intensity with inhibitor added together with BIM-GFP to pulled-down BCL2; assay type: binding; conditions: various concentrations of inhibitor added with BIM-GFP; BCL2 from HL60
Description: Excess lysate was washed off with a washing buffer (HEPES 50 mM NaCl 150 mM glycerol 1% GDN 0.03%). Then, protein-protein interactions were measured as follows:
This Example can be used to measure direct relationship between targeting inhibitors used and the BCL2 family proteins and related signaling proteins. To this end, BCL2 or MCL1 protein was used as a first protein while BIM-GFP protein served as a first protein-interacting protein.

T1 sequence (P10415 whole entry): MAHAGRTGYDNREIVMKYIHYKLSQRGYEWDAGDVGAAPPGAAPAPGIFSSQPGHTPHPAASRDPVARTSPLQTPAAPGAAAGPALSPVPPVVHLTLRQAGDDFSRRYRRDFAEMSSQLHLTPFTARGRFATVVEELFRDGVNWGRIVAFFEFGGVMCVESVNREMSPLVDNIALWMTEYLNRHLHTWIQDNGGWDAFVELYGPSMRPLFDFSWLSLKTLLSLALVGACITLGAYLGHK
T3 sequence (P10415 whole entry): as above
T4 sequence (Q07820 whole entry): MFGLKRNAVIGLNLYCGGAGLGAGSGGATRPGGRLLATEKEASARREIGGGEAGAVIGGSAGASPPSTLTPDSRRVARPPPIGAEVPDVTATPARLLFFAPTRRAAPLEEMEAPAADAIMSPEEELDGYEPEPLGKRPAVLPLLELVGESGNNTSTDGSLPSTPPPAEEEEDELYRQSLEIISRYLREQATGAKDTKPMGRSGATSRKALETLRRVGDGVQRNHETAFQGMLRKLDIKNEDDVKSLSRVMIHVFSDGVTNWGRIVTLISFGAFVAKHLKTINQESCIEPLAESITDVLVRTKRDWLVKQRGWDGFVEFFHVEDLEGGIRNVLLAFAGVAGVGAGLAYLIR
T2 sequence (Q07817 whole entry): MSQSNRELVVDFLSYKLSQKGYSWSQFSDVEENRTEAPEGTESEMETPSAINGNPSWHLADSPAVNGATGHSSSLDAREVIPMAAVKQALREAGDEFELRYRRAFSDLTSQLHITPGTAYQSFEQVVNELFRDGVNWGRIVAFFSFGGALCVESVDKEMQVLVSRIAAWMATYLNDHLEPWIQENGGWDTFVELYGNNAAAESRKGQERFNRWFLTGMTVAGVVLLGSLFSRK

## CC(C)(C)c1cc(NC(=O)Nc2ccc(-c3cn4c(n3)sc3cc(OCCN5CCOCC5)ccc34)cc2)no1 [quizartinib]
BCL2-BIM interaction [1]
  BCL2-BIM PPI: drastic increase
Leukocyte count; patient 1
  leukocyte count: drastic rise
Leukocyte count; patient 2
  leukocyte count: about three folds increased

## CO[C@H]1/C=C/C[C@H](C)[C@@H](C)S(=O)(=O)NC(=O)c2ccc3c(c2)N(C[C@@H]2CC[C@H]21)C[C@@]1(CCCc2cc(Cl)ccc21)CO3 [AMG176]
BCL-XL
  BCL-XL PPI intensity: responsive to none
BCL2-BAD interaction; HL60 and OCI-LY3 cells, 100 nM, vs DMSO
  BCL2-BAD PPI intensity: did not change
MCL1-NOXA interaction
  MCL1-NOXA PPI: selectively increase

## CN[C@@H]1C[C@H]2O[C@@](C)([C@@H]1OC)n1c3ccccc3c3c4c(c5c6ccccc6n2c5c31)C(=O)NC4 [Staurosporine]
BAX (N-terminus exposed)
  N-terminus exposed BAX signals: increased signals
BAX
  N-terminus-exposed BAX after artificial exposure with Triton X-100: constant values

## Cc1c2c(nn1C)CSCc1cc(n(C)n1)CSc1cc(c3ccccc3c1)OCCCc1c(C(=O)O)n(C)c3c-2c(Cl)ccc13 [AZD5991]
BCL2
  expression level of BCL2: does not incite a significant change
BCL2-BAD interaction; OCI-LY3 cells, vs non-treated group
  BCL2-BAD interaction (PPI): no influences
BCL2-BIM interaction [2]
  BCL2-BIM PPI intensity: not affected
